Results from patent US11827646B2, “Compounds for treating spinal muscular atrophy” (Hoffmann-La Roche Inc., priority 2014, dated 2023).

Tests used:
[1] = tested on: full length SMN2 minigene mRNA (HEK293H cells stably transfected with SMN2-A minigene); assay: SMN2 minigene mRNA splicing RT-qPCR assay in cultured cells; assay type: cell-based; conditions: Homo sapiens, HEK293-H, 24 hours, 7-point concentration curve, 1.5-fold increase relative to vehicle, read-out: EC1.5x minigene (EC1.5x concentration for production of full length SMN2 minigene mRNA)
Description: The term “EC1.5x concentration for production of full length SMN2 minigene mRNA” (or “EC1.5x minigene”) is defined as that concentration of test compound that 1 s effective m increasing the amount of full length SMN2 minigene mRNA to a level 1.5-fold greater relative to that in vehicle-treated cells.
The reverse transcription-quantitative PCR-based (RT-qPCR) assay is used to quantify the level of the full length SMN2 minigene (referred to herein by the term “FL SMN2mini”) mRNA containing SMN2 exon 7 in a HEK293H cell line stably transfected with said minigene and treated with a test compound. Materials used and respective sources are listed below in Table 1.
The SMN2-A minigene construct was prepared as described in International Patent Application WO2009/151546A1 page 145 paragraph [00400] to page 147 paragraph [00412](incl. FIG. 1 and FIG. 3 therein).
HEK293H cells stably transfected with the SMN2-A minigene construct (10,000 cells/well) are seeded in 200 μL of cell culture medium (DMEM plus 10% FBS, with 200 μg/mL hygromycin) in 96-well flat-bottom plates and the plate is immediately swirled to ensure proper dispersal of cells and the formation of an even monolayer of cells. Cells are allowed to attach for 6 hours. Test compounds are serially diluted 3.16-fold in 100% DMSO to generate a 7-point concentration curve. A solution of test compound (1 μL, 200× in DMSO) is added to each cell-containing well and the plate is incubated for 24 hours in a cell culture incubator (37° C., 5% CO2, 100% relative humidity). 2 replicates are prepared for each test compound concentration. The cells are then lysed in the Cells-To-Ct lysis buffer and the lysate is stored at −80° C.
Full length SMN2-A minigene and GAPDH mRNA are quantified using the primers and probes referenced in Table 2. Primer SMN Forward A (SEQ ID NO.1) hybridizes to a nucleotide sequence in exon 7 (nucleotide 22 to nucleotide 40), primer SMN Reverse A (SEQ ID NO.2) hybridizes to a nucleotide sequence in the coding sequence of Firefly luciferase, SMN Probe A (SEQ ID NO.3) hybridizes to a nucleotide sequence in exon 7 (nucleotide 50 to nucleotide 54) and exon 8 (nucleotide 1 to nucleotide 21). The combination of these three oligonucleotides detects only SMN1 or SMN2 minigenes (RT-qPCR) and will not detect endogenous SMN1 or SMN2 genes.
The SMN forward and reverse primers are used at final concentrations of 0.4 μM. The SMN probe is used at a final concentration of 0.15 μM. The GAPDH primers are used at final concentrations of 0.2 μM and the probe at 0.15 μM.
The SMN2-minigene GAPDH mix (15 μL total volume) is prepared by combining 7.5 μL of 2×RT-PCR buffer, 0.4 μL of 25×RT-PCR enzyme mix, 0.75 μL of 20×GAPDH primer-probe mix, 4.0075 μL of water, 2 μL of 10-fold diluted cell lysate, 0.06 μL of 100 µM SMN forward primer, 0.06 μL of 100 μM SMN reverse primer, and 0.225 μL of 100 μM SMN probe.
PCR is carried out at the following temperatures for the indicated time: Step 1: 48° C. (15 min); Step 2: 95° C. (10 min); Step 3: 95° C. (15 sec); Step 4: 60° C. (1 min); then repeat Steps 3 and 4 for a total of 40 cycles.
Each reaction mixture contains both SMN2-A minigene and GAPDH primers/probe sets (multiplex design), allowing simultaneous measurement of the levels of two transcripts.
The increase in the abundance of the FL SMN2mini mRNA relative to that in cells treated with vehicle control is determined from real-time PCR data using a modified ΔΔCt method (as described in Livak and Schmittgen, Methods, 2001, 25:402-8). The amplification efficiency E is calculated from the slope of the amplification curve for FL SMN2mini and GAPDH individually. The abundance of FL SMN2mini and GAPDH mRNA are then calculated as (1+E)^−Ct, where Ct is the threshold value for each amplicon. The abundance of FL SMN2mini mRNA is normalized to GAPDH mRNA abundance. […]

[2] = tested on: SMN protein in SMA patient fibroblast cells (GM03813); assay: SMN protein assay in cultured cells (SMN HTRF); assay type: cell-based; conditions: Homo sapiens, SMA Type 1 patient fibroblasts, 48 hours; for EC (1.5-fold): 7-point concentration curve, 1.5 times SMN protein vs vehicle, read-out: EC1.5x SMN protein (EC1.5x concentration for SMN protein expression); for maximal fold induction: fold increase relative to vehicle control, read-out: max. fold increase of SMN protein
Description: The term “EC1.5x concentration for SMN protein expression” (or “EC1.5x SMN protein”) is defined as that concentration of test compound that is effective in producing 1.5 times the amount of SMN protein in an SMA patient fibroblast cell compared to the amount produced from the vehicle control.
The SMN HTRF (homogeneous time resolved fluorescence) assay is used to quantify the level of SMN protein in SMA patient fibroblast cells treated with test compounds. Materials used and respective sources are listed below in Table 4.
Cells are thawed and cultured in DMEM-10% FBS for 72 hours. Cells are trypsinized, counted and re-suspended to a concentration of 25,000 cells/mL in DMEM-10% FBS. The cell suspensions are plated at 5,000 cells per well in a 96 well microtiter plate and incubated for 3 to […]. Test compounds are serially diluted 3.16-fold in 100% DMSO to generate a 7-point concentration curve. 1 μL of test compound solution is transferred to cell-containing wells and cells are incubated for 48 hours in a cell culture incubator (37° C., 5% CO2, […]). Triplicate samples are set up for each test compound concentration. After 48 hours, the supernatant is removed from the wells and 25 μL of the RIPA lysis buffer, containing protease inhibitors, is added to the wells and incubated with shaking at room temperature for 1 hour. 25 μL of the diluent is added and then 35 μL of the resulting lysate is transferred to a 384-well plate, where each well contains 5 μL of the antibody solution (1:100 dilution of anti-SMN d2 and anti-SMN kryptate in SMN reconstitution buffer). The plate is centrifuged for 1 minute to bring the solution to the bottom of the wells, then incubated overnight at room temperature. Fluorescence for each well of the plate at 665 nm and 620 nm is measured on an EnVision multilabel plate reader (Perkin-Elmer).
The normalized fluorescence signal is calculated for each sample, Blank and vehicle control well by dividing the signal at 665 nm by the signal at 620 nm. Normalizing the signal accounts for possible fluorescence quenching due to the matrix effect of the lysate. The ΔF value (a measurement of SMN protein abundance as a percent value) for each sample well is calculated by subtracting the normalized average fluorescence for the Blank control wells from the normalized fluorescence for each sample well, then dividing this difference by the normalized average fluorescence for the Blank control wells and multiplying the resulting value by 100. The ΔF value for each sample well represents the SMN protein abundance from test compound-treated samples. The ΔF value for each sample well is divided by the ΔF value for the vehicle control wells to calculate the fold increase in SMN protein abundance relative to the vehicle control. Table 5 provides EC1.5x concentrations for SMN protein expression that was obtained from the 7-point concentration data generated according to the above procedure for particular compounds of the present invention.
Table 6 provides the maximum fold increase of SMN protein that was obtained from the 7-point concentration data generated according to the above procedure for particular compounds of the present invention

Structure (SMILES) | EC (1.5-fold) [1] [µM] | EC (1.5-fold) [2] [µM] | maximal fold induction [2]
Cc1cn2nc(-c3cc(=O)n4cc(N5CCN6CCC[C@H]6C5)ccc4n3)ccc2n1 [Example 15, 7-[(8aS)-3,4,6,7,8,8a-hexahydro-1H-pyrrolo[1,2-a]pyrazin-2-yl]-2-(2-methylimidazo[1,2-b]pyridazin-6-yl)pyrido[1,2-a]pyrimidin-4-one] | 0.004 | 0.0212 | 1.94
Cc1cn2nc(-c3cc(=O)n4cc(N5CCNC(C)(C)C5)ccc4n3)cc(C)c2n1 [Example 22, 2-(2,8-dimethylimidazo[1,2-b]pyridazin-6-yl)-7-(3,3-dimethylpiperazin-1-yl)pyrido[1,2-a]pyrimidin-4-one] | 0.0009 | 0.0138 | 1.69
Cc1cn2nc(-c3cc(=O)n4cc(N5C[C@H](C)N[C@@H](C)C5)ccc4n3)cc(C)c2n1 [Example 29, 2-(2,8-dimethylimidazo[1,2-b]pyridazin-6-yl)-7-[(3S,5S)-3,5-dimethylpiperazin-1-yl]pyrido[1,2-a]pyrimidin-4-one] | 0.0003 | 0.0021 | 1.81
Cc1cn2nc(-c3cc(=O)n4cc(N5CCN6CCC[C@H]6C5)ccc4n3)cc(C)c2n1 [Example 3, 7-[(8aS)-3,4,6,7,8,8a-hexahydro-1H-pyrrolo[1,2-a]pyrazin-2-yl]-2-(2,8-dimethylimidazo[1,2-b]pyridazin-6-yl)pyrido[1,2-a]pyrimidin-4-one] | 0.0032 | 0.0256 | 1.81
Cc1cn2nc(-c3cc(=O)n4cc(N5CCN6CCC[C@@]6(C)C5)ccc4n3)ccc2n1 [Example 16, 7-[(8aS)-8a-methyl-1,3,4,6,7,8-hexahydropyrrolo[1,2-a]pyrazin-2-yl]-2-(2-methylimidazo[1,2-b]pyridazin-6-yl)pyrido[1,2-a]pyrimidin-4-one] | 0.0011 | 0.003 | 1.83
Cc1cn2nc(-c3cc(=O)n4cc(N5CCN[C@H](C)C5)cc(C)c4n3)cc(C)c2n1 [Example 25, 2-(2,8-dimethylimidazo[1,2-b]pyridazin-6-yl)-9-methyl-7-[(3R)-3-methylpiperazin-1-yl]pyrido[1,2-a]pyrimidin-4-one] | 0.0005 | 0.0119 | 1.79
Cc1cn2nc(-c3cc(=O)n4cc(N5CCN[C@@H](C)C5)cc(C)c4n3)ccc2n1 [Example 33, 9-methyl-2-(2-methylimidazo[1,2-b]pyridazin-6-yl)-7-[(3S)-3-methylpiperazin-1-yl]pyrido[1,2-a]pyrimidin-4-one] | 0.0005 | 0.004 | 1.82
Cc1cn2nc(-c3cc(=O)n4cc(N5CCNC6(CC6)C5)cc(C)c4n3)ccc2n1 [Example 37, 7-(4,7-diazaspiro[2.5]octan-7-yl)-9-methyl-2-(2-methylimidazo[1,2-b]pyridazin-6-yl)pyrido[1,2-a]pyrimidin-4-one] | 0.0044 | 0.045 | 1.87
Cc1cn2nc(-c3cc(=O)n4cc(N5CCN[C@H](C)C5)cc(C)c4n3)ccc2n1 [Example 34, 9-methyl-2-(2-methylimidazo[1,2-b]pyridazin-6-yl)-7-[(3R)-3-methylpiperazin-1-yl]pyrido[1,2-a]pyrimidin-4-one] | 0.0009 | 0.0044 | 1.89
Cc1cn2nc(-c3cc(=O)n4cc(N5C[C@@H](C)N[C@@H](C)C5)ccc4n3)ccc2n1 [Example 14, 7-[(3R,5S)-3,5-dimethylpiperazin-1-yl]-2-(2-methylimidazo[1,2-b]pyridazin-6-yl)pyrido[1,2-a]pyrimidin-4-one] | 0.0041 | 0.0176 | 1.86
Cc1cn2nc(-c3cc(=O)n4cc(N5CCN[C@@H](C)C5)cc(C)c4n3)cc(C)c2n1 [Example 24, 2-(2,8-dimethylimidazo[1,2-b]pyridazin-6-yl)-9-methyl-7-[(3S)-3-methylpiperazin-1-yl]pyrido[1,2-a]pyrimidin-4-one] | 0.0004 | 0.0047 | 1.77
Cc1cn2nc(-c3cc(=O)n4cc(N5CC[C@H](N6CCCC6)C5)ccc4n3)ccc2n1 [Example 31, 2-(2-methylimidazo[1,2-b]pyridazin-6-yl)-7-[(3S)-3-pyrrolidin-1-ylpyrrolidin-1-yl]pyrido[1,2-a]pyrimidin-4-one] | 0.0067 | 0.0277 | 1.65
Cc1cn2nc(-c3cc(=O)n4cc(N5CCN6CCC[C@@H]6C5)ccc4n3)ccc2n1 [Example 2, 7-[(8aR)-3,4,6,7,8,8a-hexahydro-1H-pyrrolo[1,2-a]pyrazin-2-yl]-2-(2-methylimidazo[1,2-b]pyridazin-6-yl)pyrido[1,2-a]pyrimidin-4-one] | 0.0038 | 0.0198 | 1.76
